Data published in patent US9145402B2, “Aminopyrimidine derivatives as LRRK2 modulators” (Genentech, Inc., priority 2011, dated 2015).

Target: LRRK2 (Homo sapiens (Human), UniProt Q5S007, G2019S)
Test: In Vitro LRRK2 LabChip Assay (LRRK2 Ki)
Assay type: biochemical
Procedure: In Vitro LRRK2 LabChip Assay
This assay was used to determine a compound's potency in inhibiting activity of LRRK2 by determining, Kiapp, IC50, or percent inhibition values. In a polypropylene plate, LRRK2, fluorescently-labeled peptide substrate, ATP and test compound were incubated together. Using a LabChip 3000 (Caliper Life Sciences), after the reaction the substrate was separated by capillary electrophoresis into two populations: phosphorylated and unphosphorylated. The relative amounts of each were quantitated by fluorescence intensity. LRRK2 Ki was determined according to the equation: Y=V0*(1−((x+Ki*(1+S/Km)+Et)/(2*Et)−(((x+Ki*(1+S/Km)+Et)^2−(4*Et*x))^0.5)/(2*Et))). Ki values in Table 4 and elsewhere herein are shown in μM.
Assay conditions and materials used were as follows:
Kinase reaction time: 2 hours
Wild type in 5 mM MgCl2: 80 μM
Solid Support: Black 50 μL volume polypropylene 384 well plate (MatriCal cat #MP101-1-PP)
Non-binding plate: 384 well clear V-bottom polypropylene plates (Greiner cat #781280).
ATP: 10 mM ATP (Cell Signaling cat #9804).
Coating Reagent #3: Coating Reagent #3 (Caliper).
Complete Reaction Buffer: H2O/25 mM Tris, pH 8.0/5 mM MgCl2/2 mM DTT/0.01% Triton X-100.
Stop Solution: H2O/100 mM HEPES, pH 7.2/0.015% Brij-35/0.2% Coating Reagent #3/20 mM EDTA.
Separation Buffer: H2O/100 mM HEPES, pH 7.2/0.015% Brij-35/0.1% Coating Reagent #3/1:200 Coating Reagent #8/10 mM EDTA/5% DMSO.
Compound Plate Preparation:
For serial dilutions, 34.6 μl DMSO was added to columns 3-24. For the assay controls, 37.5 μl DMSO was added to columns 1 and 2 of rows A and P. a,d and 50 μl 25 μM G-028831 (Staurosporine) was added to columns 1 and 2, row B. For the samples: to start at 100 μM, 37.5 μl DMSO was to columns 1 and 2, then 12.5 μl 10 mM compound; to start at 10 μM, 78 μl DMSO was added to columns 1 & 2, then 2 μl 10 mM compound; and to start at 1 μM, 25 μM compound (2 μl 10 mM cmpd+798 μl DMSO) was added to empty columns 1 and 2. A Precision instrument was used to perform 1:3.16 serial dilutions (“PLK_BM_serial_halflog”).
ATP was diluted to 282.1 μM in Complete Kinase Buffer (final concentration was 130 μM).
Total and Blank Preparation:
In Complete Reaction Buffer, substrate was diluted to 4 μM. Equal volumes of Complete Reaction Buffer and 4 μM substrate were combined to obtain the blank. Equal volumes of Complete Reaction Buffer and 4 μM substrate were combined and to the combined solution was added 2× final LRRK2 concentration.
To a 50 μl polypropylene plate, 5 μl/well buffer/substrate was added by hand to Blank wells. A Biomek FX was used to start the kinase reaction (“PLK SAR 23 ATP”). The following were added to the appropriate wells:
5 μl/well compound/ATP in Assay Plate;
5 μl/well kinase/substrate in Assay Plate;
The plate was incubated for 2 hours in the dark. Biomek FX was used to stop the kinase reaction (“PLK Stop”), and 10 μl/well Stop solution was added to the Assay Plate. Results were read on the LabChip 3000.
The LabChip 3000 was run using the job “LRRK2 IC50” with the following job settings:
Downstream voltage: −500 V
Upstream voltage: −2350 V
Post sample buffer sip time: 75 seconds
Post dye buffer sip time: 75 seconds
Final delay time: 200 seconds

Chain of LRRK2 (Q5S007 970-2527 G2019S): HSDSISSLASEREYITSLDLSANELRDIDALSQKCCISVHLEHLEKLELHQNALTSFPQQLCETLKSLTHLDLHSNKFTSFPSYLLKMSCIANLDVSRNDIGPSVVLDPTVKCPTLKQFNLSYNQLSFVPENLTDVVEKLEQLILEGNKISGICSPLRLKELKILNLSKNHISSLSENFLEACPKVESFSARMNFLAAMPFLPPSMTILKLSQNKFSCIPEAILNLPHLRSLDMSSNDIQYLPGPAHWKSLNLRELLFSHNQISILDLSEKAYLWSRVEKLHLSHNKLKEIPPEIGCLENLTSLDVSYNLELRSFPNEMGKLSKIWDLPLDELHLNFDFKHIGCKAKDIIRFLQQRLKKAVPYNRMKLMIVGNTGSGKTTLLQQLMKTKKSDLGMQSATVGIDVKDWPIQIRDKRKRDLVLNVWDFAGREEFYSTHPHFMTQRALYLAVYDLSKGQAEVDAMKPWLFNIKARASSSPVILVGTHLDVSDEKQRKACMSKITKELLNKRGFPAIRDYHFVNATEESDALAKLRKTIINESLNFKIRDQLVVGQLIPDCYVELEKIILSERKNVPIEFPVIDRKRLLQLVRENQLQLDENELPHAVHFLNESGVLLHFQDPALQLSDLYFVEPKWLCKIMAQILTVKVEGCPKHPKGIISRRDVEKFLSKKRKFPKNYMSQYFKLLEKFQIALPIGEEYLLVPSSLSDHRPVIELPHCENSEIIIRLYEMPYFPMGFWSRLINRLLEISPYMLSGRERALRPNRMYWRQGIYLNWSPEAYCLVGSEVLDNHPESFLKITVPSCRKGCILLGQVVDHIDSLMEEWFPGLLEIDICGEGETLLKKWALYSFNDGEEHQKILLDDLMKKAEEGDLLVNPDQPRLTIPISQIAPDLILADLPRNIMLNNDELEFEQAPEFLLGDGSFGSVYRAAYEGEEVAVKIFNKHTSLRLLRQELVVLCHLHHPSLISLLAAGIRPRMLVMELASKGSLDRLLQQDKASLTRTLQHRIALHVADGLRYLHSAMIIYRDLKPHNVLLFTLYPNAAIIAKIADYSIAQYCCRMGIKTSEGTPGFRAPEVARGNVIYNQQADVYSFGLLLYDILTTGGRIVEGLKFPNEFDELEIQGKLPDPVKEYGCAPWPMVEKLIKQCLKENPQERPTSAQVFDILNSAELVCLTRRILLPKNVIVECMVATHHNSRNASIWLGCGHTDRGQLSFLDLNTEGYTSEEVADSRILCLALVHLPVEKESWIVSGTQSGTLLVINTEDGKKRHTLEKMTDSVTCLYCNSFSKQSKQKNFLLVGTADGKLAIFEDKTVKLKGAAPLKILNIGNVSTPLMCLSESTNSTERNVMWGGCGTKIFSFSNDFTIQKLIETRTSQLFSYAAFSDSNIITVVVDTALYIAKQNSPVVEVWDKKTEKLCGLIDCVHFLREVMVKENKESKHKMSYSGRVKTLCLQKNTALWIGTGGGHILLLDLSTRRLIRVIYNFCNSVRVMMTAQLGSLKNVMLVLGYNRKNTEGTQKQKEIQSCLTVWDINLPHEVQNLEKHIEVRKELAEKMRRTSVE

Row | SMILES | Ki
1 | CNc1nc(Nc2ccc(C(F)(F)F)cc2OC)ncc1C(F)(F)F [Example 27, N2-(2-methoxy-4-(trifluoromethyl)phenyl)-N4-methyl-5-(trifluoromethyl)pyrimidine-2,4-diamine] | 23 nM
2 | CNc1nc(Nc2cc(F)c(N3CCCCC3=O)cc2OC)ncc1C(F)(F)F [Example 32, 1-(2-fluoro-5-methoxy-4-(4-(methylamino)-5-(trifluoromethyl)pyrimidin-2-ylamino)phenyl)piperidin-2-one] | 5.5 nM
3 | CNc1nc(Nc2cc(F)c(C3COC3)cc2OC)ncc1C(F)(F)F [Example 33, N2-(5-fluoro-2-methoxy-4-(oxetan-3-yl)phenyl)-N4-methyl-5-(trifluoromethyl)pyrimidine-2,4-diamine] | 3 nM
4 | CNc1nc(Nc2ccc(S(C)(=O)=O)cc2OC(C)C)ncc1C(F)(F)F [Example 16, N2-(2-Isopropoxy-4-methanesulfonyl-phenyl)-N4-methyl-5-trifluoromethyl-pyrimidine-2,4-diamine] | 17 nM
5 | CCNc1nc(Nc2cc(F)c(CN3CCOCC3)cc2OCCF)ncc1C(F)(F)F [Example 22, N4-Ethyl-N2-[5-fluoro-2-(2-fluoro-ethoxy)-4-morpholin-4-ylmethyl-phenyl]-5-trifluoromethyl-pyrimidine-2,4-diamine] | 2 nM
6 | CNc1nc(Nc2ccc(C#N)cc2OC)ncc1C(F)(F)F [Example 4, 3-Methoxy-4-(4-(methylamino)-5-(trifluoromethyl)pyrimidin-2-ylamino)benzonitrile] | 8 nM
